Laboratory results from ChEMBL document CHEMBL1151440, “Safety and pharmacokinetics of GSK364735, a human immunodeficiency virus type 1 integrase inhibitor, following single and repeated administration in healthy adult subjects” (Antimicrob Agents Chemother, 2007).

Legend:
[1] = Cmax in fasted human at 200 mg administered as single dose; assay type: ADME, organism-based; set-up: dose 200 mg; conditions: in vivo
[2] = Terminal elimination half life in fasted human at 100 mg administered as single dose; assay type: ADME, organism-based; conditions: in vivo, read-out: beta t1/2 (converted)
[3] = Plasma concentration in human at 400 mg administered with fat meal every 12 hrs for 8 days measured on day 1 after 12 hrs of first dose; assay type: ADME, organism-based
[4] = Apparent oral clearance in fasted human at 50 mg administered as single dose; assay type: ADME, organism-based; conditions: in vivo
[5] = Oral bioavailability in dog; assay type: ADME, organism-based, Canis lupus familiaris; conditions: in vivo
Homo sapiens [6] = organism: Homo sapiens; test: Toxicity in human assessed as headache at 400 mg daily for 8 days; assay type: organism-based; conditions: in vivo, 192 h
[7] = Tmax in fasted human at 200 mg administered with fat meal as single dose; assay type: ADME, organism-based; conditions: in vivo
[8] = Tmax in human at 400 mg administered with fat meal daily for 8 days measured on day 8; assay type: ADME, organism-based; conditions: in vivo
Homo sapiens [9] = organism: Homo sapiens; test: Toxicity in human assessed as dizziness at 400 mg daily for 8 days; assay type: organism-based; conditions: in vivo, 192 h
[10] = Terminal elimination half life in human at 200 mg administered with fat meal as single dose; assay type: ADME, organism-based; conditions: in vivo, read-out: beta t1/2 (converted)
[11] = AUC (0 to infinity) in human at 400 mg administered with fat meal as single dose; assay type: ADME, organism-based; set-up: dose 400 mg, time infinity; conditions: plasma
[12] = Terminal elimination half life in fasted human at 200 mg administered as single dose; assay type: ADME, organism-based; conditions: in vivo, read-out: beta t1/2 (converted)
[13] = Tmax in fasted human at 400 mg administered as single dose; assay type: ADME, organism-based; conditions: in vivo
[14] = Apparent oral clearance in human at 200 mg administered with fat meal every 12 hrs for 8 days measured on day 1; assay type: ADME, organism-based; conditions: in vivo
[15] = Cmax in human at 100 mg administered with fat meal every 12 hrs for 8 days measured on day 1; assay type: ADME, organism-based; set-up: dose 100 mg; conditions: in vivo
[16] = Terminal elimination half life in human at 400 mg administered with fat meal daily for 8 days measured on day 8; assay type: ADME, organism-based; conditions: in vivo, read-out: beta t1/2 (converted)
[17] = AUC (0 to infinity) in human at 50 mg administered with fat meal every 12 hrs for 8 days measured on day 1; assay type: ADME, organism-based; set-up: dose 50 mg, time infinity; conditions: plasma
Homo sapiens [18] = organism: Homo sapiens; test: Protein binding in human plasma by equilibrium dialysis assay; conditions: read-out: PB
[19] = Terminal elimination half life in iv dosed dog; assay type: ADME, organism-based, Canis lupus familiaris; conditions: in vivo, read-out: beta t1/2 (converted)
[20] = Terminal elimination half life in fasted human at 50 mg administered as single dose; assay type: ADME, organism-based; conditions: in vivo, read-out: beta t1/2 (converted)
Homo sapiens [21] = test: Toxicity in human assessed as diarrhea at 50 to 200 mg administered as single dose; assay type: organism-based; conditions: in vivo
[22] = Terminal elimination half life in human at 100 mg administered with fat meal every 12 hrs for 8 days measured on day 8; assay type: ADME, organism-based; conditions: in vivo, read-out: beta t1/2 (converted)
[23] = Tmax in human at 200 mg administered with fat meal every 8 hrs for 8 days measured on day 1; assay type: ADME, organism-based; conditions: in vivo
[24] = Apparent oral clearance in human at 400 mg administered with fat meal daily for 8 days measured on day 8; assay type: ADME, organism-based; conditions: in vivo
[25] = Cmax in fasted human at 100 mg administered as single dose; assay type: ADME, organism-based; set-up: dose 100 mg; conditions: in vivo
Homo sapiens [26] = test: Toxicity in human assessed as dizziness at 200 mg administered every 12 hrs for 8 days; assay type: organism-based; conditions: in vivo
Homo sapiens [27] = test: Toxicity in human assessed as adverse effect at 200 mg administered every 8 hrs for 8 days; assay type: organism-based; conditions: in vivo
[28] = Cmax in human at 200 mg administered with fat meal every 8 hrs for 8 days measured on day 1; assay type: ADME, organism-based; set-up: dose 200 mg; conditions: in vivo
[29] = AUC (0 to 12 hrs) in human at 100 mg administered with fat meal every 12 hrs for 8 days measured on day 8; assay type: ADME, organism-based; set-up: time < 12 hr, dose 100 mg; conditions: plasma
[30] = Terminal elimination half life in human at 50 mg administered with fat meal every 12 hrs for 8 days measured on day 8; assay type: ADME, organism-based; conditions: in vivo, read-out: beta t1/2 (converted)
[31] = Apparent oral clearance in human at 400 mg administered with fat meal as single dose; assay type: ADME, organism-based; conditions: in vivo
[32] = Apparent oral clearance in fasted human at 400 mg administered as single dose; assay type: ADME, organism-based; conditions: in vivo
[33] = Cmax in fasted human at 50 mg administered as single dose; assay type: ADME, organism-based; set-up: dose 50 mg; conditions: in vivo
Rattus norvegicus = test: Clearance in iv dosed rat assessed as liver blood flow; assay type: ADME, organism-based; conditions: in vivo
[34] = Apparent oral clearance in human at 100 mg administered with fat meal every 12 hrs for 8 days measured on day 1; assay type: ADME, organism-based; conditions: in vivo
[35] = Terminal elimination half life in human at 400 mg administered with fat meal as single dose; assay type: ADME, organism-based; conditions: in vivo, read-out: beta t1/2 (converted)
[36] = Tmax in fasted human at 200 mg administered as single dose; assay type: ADME, organism-based; conditions: in vivo
Homo sapiens [37] = test: Toxicity in human assessed as headache at 50 to 200 mg administered as single dose; assay type: organism-based; conditions: in vivo
[38] = system: Human immunodeficiency virus 1; test: Antiviral activity against HIV1 BaL in peripheral blood lymphocytes; assay type: functional, organism-based; conditions: Human immunodeficiency virus 1, BaL
[39] = Tmax in fasted human at 400 mg administered with fat meal as single dose; assay type: ADME, organism-based; conditions: in vivo
Homo sapiens [40] = test: Toxicity in human assessed as changes in 12-lead ECG at 50 to 400 mg after sequential repeated administration for 8 days; assay type: organism-based; conditions: in vivo, 192 h
Homo sapiens [41] = test: Toxicity in human assessed as changes in continuous telemetry monitoring at 50 to 200 mg administered as single dose; assay type: organism-based; conditions: in vivo
[42] = Oral bioavailability rat; assay type: ADME, organism-based; conditions: in vivo
[43] = Terminal elimination half life in iv dosed monkey; assay type: ADME, organism-based, Macaca mulatta; conditions: rhesus monkey, in vivo, read-out: beta t1/2 (converted)
[44] = AUC (0 to infinity) in fasted human at 200 mg administered as single dose; assay type: ADME, organism-based; set-up: dose 200 mg, time infinity; conditions: plasma
Homo sapiens [45] = test: Toxicity in human assessed as adverse effect at 50 to 200 mg administered as single dose; assay type: organism-based; conditions: in vivo
Homo sapiens [46] = test: Toxicity in human assessed as headache at 200 mg administered every 8 hrs for 8 days; assay type: organism-based; conditions: in vivo
[47] = Tmax in human at 100 mg administered with fat meal every 12 hrs for 8 days measured on day 8; assay type: ADME, organism-based; conditions: in vivo
[48] = AUC (0 to infinity) in fasted human at 50 mg administered as single dose; assay type: ADME, organism-based; set-up: dose 50 mg, time infinity; conditions: plasma
[49] = AUC (0 to infinity) in human at 100 mg administered with fat meal every 12 hrs for 8 days measured on day 1; assay type: ADME, organism-based; set-up: dose 100 mg, time infinity; conditions: plasma
[50] = Terminal elimination half life in human at 200 mg administered with fat meal every 12 hrs for 8 days measured on day 8; assay type: ADME, organism-based; conditions: in vivo, read-out: beta t1/2 (converted)
[51] = AUC (0 to infinity) in fasted human at 400 mg administered as single dose; assay type: ADME, organism-based; set-up: dose 400 mg, time infinity; conditions: plasma
[52] = Apparent oral clearance in human at 50 mg administered with fat meal every 12 hrs for 8 days measured on day 1; assay type: ADME, organism-based; conditions: in vivo
Homo sapiens [53] = test: Toxicity in human assessed as changes in vital sign at 50 to 400 mg after sequential repeated administration for 8 days; assay type: organism-based; conditions: in vivo, 192 h
[54] = Apparent oral clearance in human at 400 mg administered with fat meal daily for 8 days measured on day 1; assay type: ADME, organism-based; conditions: in vivo
[55] = Cmax in human at 400 mg administered with fat meal as single dose; assay type: ADME, organism-based; set-up: dose 400 mg; conditions: in vivo
[56] = Apparent oral clearance in fasted human at 200 mg administered as single dose; assay type: ADME, organism-based; conditions: in vivo
[57] = AUC (0 to 12 hrs) in human at 50 mg administered with fat meal every 12 hrs for 8 days measured on day 8; assay type: ADME, organism-based; set-up: dose 50 mg, time < 12 hr; conditions: plasma
[58] = Cmax in fasted human at 400 mg administered as single dose; assay type: ADME, organism-based; set-up: dose 400 mg; conditions: in vivo
[59] = Cmax in human at 50 mg administered with fat meal every 12 hrs for 8 days measured on day 1; assay type: ADME, organism-based; set-up: dose 50 mg; conditions: in vivo

Cmax [1]: 1100 ng/mL
half-life [2]: 2.9 h
concentration at 12 h [3]: 340 ng/mL
CL/F [4]: 267 mL/min
bioavailability [5]: 6%
Tmax [7]: 4 h
Tmax [8]: 4 h
half-life [10]: 6.5 h
AUC(0-inf) [11]: 8500 ng·h/mL
half-life [12]: 5.3 h
Tmax [13]: 2.2 h
CL/F [14]: 367 mL/min
Cmax [15]: 2500 ng/mL
half-life [16]: 4.4 h
AUC(0-inf) [17]: 4000 ng·h/mL
fraction unbound (Homo sapiens [18]): 0.01
half-life [19]: 1.5 h
half-life [20]: 3.1 h
half-life [22]: 4.2 h
Tmax [23]: 3.75 h
CL/F [24]: 550 mL/min
Cmax [25]: 1000 ng/mL
Cmax [28]: 1100 ng/mL
AUC at 12 h [29]: 12000 ng·h/mL
half-life [30]: 3.7 h
CL/F [31]: 783 mL/min
CL/F [32]: 1020 mL/min
Cmax [33]: 760 ng/mL
QH (Rattus norvegicus): 5.8%
CL/F [34]: 147 mL/min
half-life [35]: 5.8 h
Tmax [36]: 2.5 h
IC50 [38]: 1.2 nM
Tmax [39]: 7 h
bioavailability [42]: 6%
half-life [43]: 1.5 h
AUC(0-inf) [44]: 5500 ng·h/mL
Tmax [47]: 3.75 h
AUC(0-inf) [48]: 3200 ng·h/mL
AUC(0-inf) [49]: 11000 ng·h/mL
half-life [50]: 2.8 h
AUC(0-inf) [51]: 6600 ng·h/mL
CL/F [52]: 217 mL/min
CL/F [54]: 433 mL/min
Cmax [55]: 840 ng/mL
CL/F [56]: 600 mL/min
AUC at 12 h [57]: 5600 ng·h/mL
Cmax [58]: 1300 ng/mL
Cmax [59]: 740 ng/mL
SMILES: Cn1c(=O)c(C(=O)NCCO)c(O)c2ncc(Cc3ccc(F)cc3)cc21 [GSK-364735]
Activity (Homo sapiens [6]): Non-toxic
Activity (Homo sapiens [9]): Non-toxic
Activity (Homo sapiens [21]): 4%
Activity (Homo sapiens [26]): Non-toxic
Activity (Homo sapiens [27]): 63%
Activity (Homo sapiens [37]): 4%
Activity (Homo sapiens [40]): Non-toxic
Activity (Homo sapiens [41]): Non-toxic
Activity (Homo sapiens [45]): 4%
Activity (Homo sapiens [46]): 13%
Activity (Homo sapiens [53]): Non-toxic
